# How the values were obtained:
# [1] = tested on: SARS-CoV-2 variants, Alphacoronavirus, Betacoronavirus, HCV, NoV, IAV, IAB
# [2] = tested on: SARS-CoV-2 variants, Alphacoronavirus, Betacoronavirus, HCV, NoV, IAV, IAB; assay: organism not typed; details: read-out: EC50 against remaining viruses
smiles,measurement,setting,value
Cc1c(-c2ccc(O)cc2)n(Cc2ccc(OCCN3CCCCC3)cc2)c2ccc(O)cc12 [Pipendoxifene],potency against six SARS-CoV-2 variants and two coronaviruses,[1],submicromolar potency
same,EC50,[2],3 to 8 µM

# Reference: patent publication US20260174744A1, “COMPOUNDS, COMPOSITIONS, AND METHODS OF TREATING RNA VIRAL INFECTIONS” (priority 2024, published 2026)
